In US9523100B2, “Pesticidal compositions and related methods” (DOW AGROSCIENCES LLC, priority 2013, dated 2016):

What was measured:
[1] = system: Green Peach Aphid (GPA) (Myzus persicae) (MYZUPE); assay: Bioassay for Green Peach Aphid (GPA), foliar spray on cabbage seedlings; type: in vivo; conditions: 72 h, 200 ppm foliar spray on cabbage seedlings, graded after three days, Abbott corrected % control, read-out: GPA 200 ppm, % Control (or Mortality) rating
Procedure, shortened: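 Cabbage seedlings infested with 20-50 GPA (wingless adults and nymphs) one day before spraying to runoff with 200 ppm compound; four pots per treatment. Live aphids counted after three days at ~25° C; percent control by Abbott's correction against solvent-sprayed plants.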

[2] = system: Sweetpotato Whitefly-Crawler (WF) (Bemisia tabaci) (BEMITA); assay: Insecticidal test for Sweetpotato Whitefly-Crawler (WF) in foliar spray assay on cotton plants; type: in vivo; conditions: 216 h, 200 ppm foliar spray on cotton plants, graded after 9 days, Abbott corrected % control, read-out: WF 200 ppm, % Control (or Mortality) rating
Procedure, shortened: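 Cotton plants carrying 200–400 whitefly eggs sprayed to run-off on both leaf surfaces at 200 ppm (acetone/0.025% Tween 20), four plants per treatment. After 9 days at about 25 °C, live 3rd–4th instar nymphs counted; Abbott-corrected percent control versus solvent check.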

CCN(C(=O)CCN(CC(F)F)C(=O)CC1CC1)c1cn(-c2cccnc2)nc1Cl [Compound F125, N-(3-Chloro-1-(pyridin-3-yl)-1H-pyrazol-4-yl)-3-(2-cyclopropyl-N-(2,2-difluoroethyl)acetamido)-N-ethylpropanamide]
mortality at 200 ppm [1]: 80 to 100% | mortality at 200 ppm [2]: 80 to 100%

CCN(C(=O)CNC(=O)/C=C/C(F)(F)F)c1cn(-c2cccnc2)nc1Cl [Compound F99, (E)-N-(2-((3-Chloro-1-(pyridin-3-yl)-1H-pyrazol-4-yl)(ethyl)amino)-2-oxoethyl)-4,4,4-trifluorobut-2-enamide]
mortality at 200 ppm [1]: 0 to 80% | mortality at 200 ppm [2]: 80 to 100%

CN(C(=O)CN1CCCCCC1=O)c1cn(-c2cccnc2)nc1Cl [Compound F22, N-(3-Chloro-1-(pyridin-3-yl)-1H-pyrazol-4-yl)-N-methyl-2-(2-oxoazepan-1-yl)acetamide]
mortality at 200 ppm [1]: 0 to 80% | mortality at 200 ppm [2]: 80 to 100%

CCN(C(=O)CCC(=O)N(C)CC1CC1)c1cn(-c2cccnc2)nc1Cl [Compound F30, N1-(3-Chloro-1-(pyridin-3-yl)-1H-pyrazol-4-yl)-N4-(cyclopropylmethyl)-N1-ethyl-N4-methylsuccinamide]
mortality at 200 ppm [1]: 80 to 100% | mortality at 200 ppm [2]: 80 to 100%

CCN(C(=O)CC/C(C)=N/OCC1CC1(F)F)c1cn(-c2cccnc2)nc1Cl (mixture of isomers) [Compound F72, (E/Z)-N-(3-chloro-1-(pyridin-3-yl)-1H-pyrazol-4-yl)-4-(((2,2-difluorocyclopropyl)methoxy)imino)-N-ethylpentanamide]
mortality at 200 ppm [1]: 80 to 100% | mortality at 200 ppm [2]: 80 to 100%

CCN(C(=O)CCNC(=O)C(C)CC(F)(F)F)c1cn(-c2cccnc2)nc1Cl (stereo not shown) [Compound F44, N-(3-((3-Chloro-1-(pyridin-3-yl)-1H-pyrazol-4-yl)(ethyl)amino)-3-oxopropyl)-4,4,4-trifluoro-2-methylbutanamide]
mortality at 200 ppm [1]: 80 to 100% | mortality at 200 ppm [2]: 80 to 100%

CCN(C(=O)CCn1ccc(C(C)=O)n1)c1cn(-c2cccnc2)nc1Cl [FA68, 3-(3-Acetyl-1H-pyrazol-1-yl)-N-(3-chloro-1-(pyridin-3-yl)-1H-pyrazol-4-yl)-N-ethylpropanamide]
mortality at 200 ppm [1]: < 0% | mortality at 200 ppm [2]: 80 to 100%

CCN(C(=O)CN1CCOC1=O)c1cn(-c2cccnc2)nc1Cl [Compound F48, N-(3-Chloro-1-(pyridin-3-yl)-1H-pyrazol-4-yl)-N-ethyl-2-(2-oxooxazolidin-3-yl)acetamide]
mortality at 200 ppm [1]: 80 to 100% | mortality at 200 ppm [2]: 80 to 100%

CCN(C(=O)CCN(CC(F)F)C(=O)CCC(F)(F)F)c1cn(-c2cccnc2)nc1Cl [Compound F89, N-(3-((3-Chloro-1-(pyridin-3-yl)-1H-pyrazol-4-yl)(ethyl)amino)-3-oxopropyl)-N-(2,2-difluoroethyl)-4,4,4-trifluorobutanamide]
mortality at 200 ppm [1]: 80 to 100% | mortality at 200 ppm [2]: 80 to 100%

CN(C(=O)CCC(=O)N1CCCCCC1)c1cn(-c2cccnc2)nc1Cl [Compound F27, 4-(Azepan-1-yl)-N-(3-chloro-1-(pyridin-3-yl)-1H-pyrazol-4-yl)-N-methyl-4-oxobutanamide]
mortality at 200 ppm [1]: 0 to 80% | mortality at 200 ppm [2]: 80 to 100%

CCN(C(=O)CCC(=O)N(C)Cc1ccc(F)cc1)c1cn(-c2cccnc2)nc1Cl [Compound F118, N1-(3-Chloro-1-(pyridin-3-yl)-1H-pyrazol-4-yl)-N1-ethyl-N4-(4-fluorobenzyl)-N4-methylsuccinamide]
mortality at 200 ppm [1]: 80 to 100% | mortality at 200 ppm [2]: 80 to 100%

CCN(C(=O)C1CCCN(C(=O)OC(C)(C)C)C1)c1cn(-c2cccnc2)nc1Cl (stereo not shown) [FA18, tert-Butyl 3-((3-chloro-1-(pyridin-3-yl)-1H-pyrazol-4-yl)(ethyl)carbamoyl) piperidine-1-carboxylate]
mortality at 200 ppm [1]: 80 to 100% | mortality at 200 ppm [2]: 80 to 100%

CCN(C(=O)C1CCC(=O)C1)c1cn(-c2cncc(F)c2)nc1C (stereo not shown) [FA71, N-Ethyl-N-(1-(5-fluoropyridin-3-yl)-3-methyl-1H-pyrazol-4-yl)-3-oxocyclopentanecarboxamide]
mortality at 200 ppm [1]: 0 to 80% | mortality at 200 ppm [2]: 0 to 80%

CCN(C(=O)CN(C)C(=O)CCC(F)(F)F)c1cn(-c2cccnc2)nc1Cl [Compound F5, N-(2-((3-Chloro-1-(pyridin-3-yl)-1H-pyrazol-4-yl)(ethyl)amino)-2-oxoethyl)-4,4,4-trifluoro-N-methylbutanamide]
mortality at 200 ppm [1]: 80 to 100% | mortality at 200 ppm [2]: 80 to 100%

CCN(C(=O)CCC1CN(C)C1=O)c1cn(-c2cccnc2)nc1Cl (stereo not shown) [Compound F119, N-(3-Chloro-1-(pyridin-3-yl)-1H-pyrazol-4-yl)-N-ethyl-3-(1-methyl-2-oxoazetidin-3-yl)propanamide]
mortality at 200 ppm [1]: 80 to 100% | mortality at 200 ppm [2]: 80 to 100%

CCN(C(=O)CCC1CN(Cc2ccc(C(F)(F)F)nc2)C1=O)c1cn(-c2cccnc2)nc1Cl (stereo not shown) [Compound F91, N-(3-Chloro-1-(pyridin-3-yl)-1H-pyrazol-4-yl)-N-ethyl-3-(2-oxo-1-((6-(trifluoromethyl)pyridin-3-yl)methyl)azetidin-3-yl)propanamide]
mortality at 200 ppm [1]: 80 to 100% | mortality at 200 ppm [2]: 80 to 100%

CCN(C(=O)CCC1CCN(C(=O)OC(C)(C)C)C1=O)c1cn(-c2cccnc2)nc1Cl (stereo not shown) [Compound F128, tert-butyl 3-(3-((3-chloro-1-(pyridin-3-yl)-1H-pyrazol-4-yl)(ethyl)amino)-3-oxopropyl)-2-oxopyrrolidine-1-carboxylate]
mortality at 200 ppm [1]: 80 to 100% | mortality at 200 ppm [2]: 80 to 100%

CCN(C(=O)C1CCCN(C(=O)C(F)(F)F)C1)c1cn(-c2cccnc2)nc1Cl (stereo not shown) [FA41, N-(3-Chloro-1-(pyridin-3-yl)-1H-pyrazol-4-yl)-N-ethyl-1-(2,2,2-trifluoroacetyl)piperidine-3-carboxamide]
mortality at 200 ppm [1]: 80 to 100% | mortality at 200 ppm [2]: 0 to 80%

CCN(C(=O)C1CCN(C(C)=O)CC1)c1cn(-c2cccnc2)nc1Cl [Compound F61, 1-Acetyl-N-(3-chloro-1-(pyridin-3-yl)-1H-pyrazol-4-yl)-N-ethylpiperidine-4-carboxamide]
mortality at 200 ppm [1]: 80 to 100% | mortality at 200 ppm [2]: 0 to 80%

CCN(C(=O)C1CCN(C(=O)C(F)(F)F)CC1)c1cn(-c2cccnc2)nc1Cl [FA5, N-(3-Chloro-1-(pyridin-3-yl)-1H-pyrazol-4-yl)-N-ethyl-1-(2,2,2-trifluoroacetyl)piperidine-4-carboxamide]
mortality at 200 ppm [1]: 80 to 100% | mortality at 200 ppm [2]: 0 to 80%

CCN(C(=O)CCC1CCNC1=O)c1cn(-c2cccnc2)nc1Cl (stereo not shown) [Compound F131, N-(3-chloro-1-(pyridin-3-yl)-1H-pyrazol-4-yl)-N-ethyl-3-(2-oxopyrrolidin-3-yl)propanamide]
mortality at 200 ppm [1]: 80 to 100% | mortality at 200 ppm [2]: 80 to 100%

CCN(C(=O)CC1CCN(CC(F)(F)F)C1=O)c1cn(-c2cccnc2)nc1Cl (stereo not shown) [FA65, N-(3-Chloro-1-(pyridin-3-yl)-1H-pyrazol-4-yl)-N-ethyl-2-(2-oxo-1-(2,2,2-trifluoroethyl)pyrrolidin-3-yl)acetamide]
mortality at 200 ppm [1]: 80 to 100% | mortality at 200 ppm [2]: 80 to 100%

O=C(CCC(=O)N(CC1CC1)c1cn(-c2cccnc2)nc1Cl)N1CCCCCC1 [Compound F18, 4-(Azepan-1-yl)-N-(3-chloro-1-(pyridin-3-yl)-1H-pyrazol-4-yl)-N-(cyclopropylmethyl)-4-oxobutanamide]
mortality at 200 ppm [1]: 0 to 80% | mortality at 200 ppm [2]: 80 to 100%
